Results on 1 molecule are retold here after US10557124B2, “Compositions and methods for obtaining stem cell derived lung tissue, and related uses thereof” (The Regents of the University of Michigan, priority 2015, dated 2020).

For experiment [1], the system named is anterior foregut endoderm (hESC-derived, ActivinA then NOG/SB). Put plainly: qRT-PCR of SHH, NKX2.1, PAX8 in foregut endoderm monolayer cultures treated with FGF/HH modulators. The format is cell-based, human. The following applies: SAG 1 μM, SU 10 μM. From the text:
Many signaling pathways are important for lung induction and development (see, e.g., Wong A P, et al., Nat Biotechnol. 2012 Aug. 26; Huang S X L, et al., Nature; 2013 Dec. 1; 1-11; Firth A L, et al., Proceedings of the National Academy of Sciences. 2014 Apr. 29; 111(17):E1723-30; Mou H, et al., Cell Stem Cell. 2012 Apr. 6; 10(4):385-97; Ghaedi M, et al., J. Clin. Invest. 2013 Nov. 1; 123(11):4950-62; Longmire T A, et al., Cell Stem Cell. 2012 Apr. 6; 10(4):398-411; Rankin S A, Zorn A M. Gene Regulatory Networks Governing Lung Specification. J Cell Biochem. 2014 Mar. 19; Morrisey E E, et al., Developmental Cell. Elsevier Inc; 2010 Jan. 19; 18(1):8-23; Min H, et al., Genes & Development. 1998 Oct. 15; 12(20):3156-61; Weaver M, et al., Development. 2000 June; 127(12):2695-704). […] 2011 Feb. 3; 470(7332):105-9; Wells J M, et al., Development. 2014 February; 141(4):752-60; Motoyama J, et al., Nat Genet. 1998 September; 20(1):54-7) and Hh signaling is important for lung mesenchyme proliferation in vivo (see, e.g., Bellusci S, et al., Development. 1997 January; 124(1):53-63). […] It has been reported that approximately 85-95% of cells are endoderm, but a portion of the remaining cells are mesodermal and this small mesodermal population is maintained in the spheroids and organoids (see, e.g., Spence J R, et al., Nature. 2011 Feb. 3; 470(7332):105-9; McCracken K W, et al., Nature; 2014 Oct. 29; 1-19; Green M D, et al., Nat Biotechnol.; 2011 Feb. 27; 1-7) (FIG. 4). Therefore, based on mouse and hPSC studies, it was hypothesized that FGF and/or HH signaling would induce an NKX2.1+ lung lineage in anterior foregut endoderm. To test this hypothesis experiments initially focused on adherent endoderm monolayer cultures to optimize induction conditions. Cultures were treated for 4 days with ActivinA followed by an additional 4 days with NOG/SB (referred to as Foregut). Controls consisted of ActivinA treatment only followed by no additional growth factors (Endoderm controls), or ActivinA followed by NOG/SB, followed by no additional factors (Foregut controls). All experimental groups were compared to both endoderm and foregut controls (FIG. 6). The ability of FGF2 to induce SHH, NKX2.1 and PAX8 was first tested by exposing foregut cultures to low and high concentrations of FGF2 (50,500 ng/mL) (FIG. 6A). […] It was also observed that dual NOG/SB inhibition in endoderm cultures induced robust NKX2.1 and PAX8 expression without adding FGF2 (FIG. 1B, 6A). Thus, it was desired to determine if NKX2.1 expression in foregut cultures was due to endogenous FGF and/or HH signaling. To test this, the FGF or HH pathway was inhibited with small molecules SU5402 (SU, 10 μm) and Sant-2 (10 μm) respectively (FIG. 6B-C). Treating foregut cultures with the FGF inhibitor SU caused a significant, robust reduction in PAX8 and a modest reduction in SHH, while NKX2.1 expression was unchanged compared to foregut control (FIG. 6B). […] To test if HH signaling was able to induce NKX2.1 in foregut cultures, the Smoothened agonist, SAG (1 μM), was added to foregut cultures. The addition of SAG induced a 6.5 fold increase of NKX2.1 expression above foregut controls (FIG. 6D).
This combination caused an additional increase in NKX2.1 expression (21 fold vs. 6.5 fold with SAG only, when compared to foregut) and a concomitant decrease in PAX8 mRNA (FIG. 6D).
(§1) After differentiation into definitive endoderm, foregut endoderm was differentiated, essentially as described (see, e.g., Green M D, et al., Nat Biotechnol. Nature Publishing Group; 2011 Feb. 27; 1-7). Briefly, cells were incubated in foregut media: Advanced DMEM/F12 plus N-2 and B27 supplement, 10 mM Hepes, lx L-Glutamine (200 mM), lx Penicillin-streptomycin (5,000 U/mL, all from Life Technologies) with 200 ng/mL Noggin (NOG, R&D Systems) and 10 μM SB431542 (SB, Stemgent) for 4 days. […]

Experiment [2] has the same test system. As to the kind of experiment: Immunofluorescence of NKX2.1 and PAX8 positive cells in foregut monolayer cultures. The format is cell-based, human. To be noted: compared to endoderm and foregut controls. Here is the method: Importantly, immunofluorescence correlated with QRT-PCR data showing an increased number of NKX2.1+ cells with the addition of SAG only. […] SAG and SAG+SU treated cells also co-expressed FOXA2 and SOX2 confirming their endodermal origin (FIG. 2).
as §1
HLOs with P63+ cells were counted as having proximal airway-like epithelium and HLOs with SFTPC+ cells were counted as having distal airway-like epithelium. The area of proximal epithelium was determined by P63+ECAD+ staining. Area was measured using ImageJ software. Cell quantification of NKX2.1, P63, and DAPI was counted by Metamorph cell counting software. FOXJ1, SFTPC, and HOPX were counted in ImageJ using the cell counter plugin.

Regarding `CNC1CCC(N(Cc2cccc(-c3ccncc3)c2)C(=O)c2sc3ccccc3c2Cl)CC1` (stereo not drawn) [SAG], the “increase of NKX2.1 expression” value in experiment [1] (foregut endoderm treated 8 days, compared to untreated foregut controls) stood at 6.5 fold. For the same molecule, in experiment [1] (vs foregut control (FGF2: vs untreated endoderm controls), FGF2 50/500 ng/mL, Sant-2 10 μM), the PAX8 expression result is given as “unchanged”. Besides, in experiment [2], the “NKX2.1+ cells (immunohistochemistry)” value is on record as “more NKX2.1+ cells”.
